Where two headings read alike, the source gives them in different places.
Columns and labels:
[1] = test system: p53KO HCT116 cancer cell line; experiment: GI50 against p53KO HCT116 cancer cell line; conditions: read-out: GI50 p53KO
[2] = test system: paclitaxel-resistant (PTX22) ovarian cancer cell line; experiment: GI50 against paclitaxel-resistant ovarian cancer cell line PTX22; conditions: read-out: GI50 PTX22
[3] = test system: colorectal (HCT116) cancer cell line; experiment: GI50 against colorectal cancer cell line HCT116
HEL cell [4] = experiment: HEL cell effects: cell growth; conditions: read-out: HEL cell effects cell growth (IC50); concentration required to reduce cell growth by 50%
[5] = test system: paclitaxel-resistant (PTX10) ovarian cancer cell line; experiment: GI50 against paclitaxel-resistant ovarian cancer cell line PTX10
HEL cell [6] = experiment: HEL cell effects: cell morphology (minimum cytotoxic concentration); conditions: minimum cytotoxic concentration causing microscopically detectable alteration of cell morphology
[7] = test system: ovarian (1A9) cancer cell line; experiment: GI50 against ovarian cancer cell line 1A9; conditions: read-out: GI50 1A9
CMV AD-169 strain = experiment: Anti-CMV activity in HEL cell cultures, AD-169 strain; type: cell-based, cytomegalovirus; conditions: reduce virus plaque formation by 50%
cytomegalovirus (CMV) = experiment: Anti-CMV activity in HEL cells (both strains); type: cell-based; conditions: for anti-CMV activity (in words): HEL cells
CMV Davis strain = experiment: Anti-CMV activity in HEL cell cultures, Davis strain; type: cell-based, cytomegalovirus; conditions: reduce virus plaque formation by 50%
[8] = test system: murine leukemia L1210, human lymphocyte CEM, and HeLa cells; experiment: Cytostatic activity against L1210, CEM and HeLa cells; type: cell-based
Experimental: The cytostatic effects of the test compounds on murine leukemia cells (L1210), human T-lymphocyte cells (CEM) and human cervix carcinoma cells (HeLa) were evaluated as follows: an appropriate number of cells suspended in growth medium were allowed to proliferate in 200-μL-wells of 96-well-microtiter plates in the presence of variable amounts of test compounds at 37° C. in a humidified CO2-controlled atmosphere. After 48 h (L1210), 72 h (CEM) or 96 h (HeLa), the number of cells was counted in a Coulter counter. The IC50 value is defined as the concentration required to inhibit cell proliferation by 50%.

[9] = paclitaxel-resistant ovarian PTX22, four days
[10] = read-out: GI50 HCT116, colorectal HCT116, four days
[11] = read-out: GI50 PTX10, paclitaxel-resistant ovarian PTX10, four days
[12] = HEL cell cultures, virus input 100 PFU

Row | Molecule | GI50 ([1]; p53KO HCT116, four days) [µM] | GI50 [2, 9] [µM] | GI50 [3, 10] [µM] | IC50 (HEL cell [4]) [µM] | GI50 [5, 11] [µM] | HEL cell effects cell morphology (MDC) (HEL cell [6]) [μM] | GI50 ([7]; ovarian 1A9, four days) [µM] | EC50 (CMV AD-169 strain; [12]) [µM] | EC50 (CMV Davis strain; [12]) [µM] | EC50 (CMV Davis strain; […]) [µM] | other results
1 | 2-[4-(Ferrocenyl)-1,2,3-triazol-1H-yl]-2′-deoxyinosine [Compound 29] | > 50 | 18 | > 50 | > 200 | > 50 | >200 | 41.6 |  |  |  | 
2 | 2-[4-(Ferrocenyl)-1,2,3-triazol-1H-yl]inosine [Compound 22] | > 50 | 12.9 | > 50 | 123 | > 50 | 2190 | 29.7 | 120 | 123 |  | anti-CMV activity (in words) (cytomegalovirus (CMV)): marginal activity
3 | Cc1ccc(-c2cn(-c3nc(O)c4ncn([C@@H]5O[C@H](CO)[C@@H](O)[C@H]5O)c4n3)nn2)cc1 [Compound 18, 2-[4-(4-Methylphenyl)-1,2,3-triazol-1H-yl]inosine] | > 50 | 13.4 | > 50 |  | > 50 | >240 | 38 | 118 | 151 |  | anti-CMV activity (in words) (cytomegalovirus (CMV)): marginal activity
4 | COc1ccc(-c2cn(-c3nc(O)c4ncn([C@@H]5O[C@H](CO)[C@@H](O)[C@H]5O)c4n3)nn2)cc1 [Compound 19, 2-[4-(4-Methoxyphenyl)-1,2,3-triazol-1H-yl]inosine] | > 50 | 8.56 | > 50 | > 230 | > 50 | >230 | 29.5 |  |  |  | 
5 | OCc1cn(-c2nc(O)c3ncn([C@@H]4O[C@H](CO)[C@@H](O)[C@H]4O)c3n2)nn1 [Compound 20, 2-[4-(Hydroxymethyl)-1,2,3-triazol-1H-yl]inosine] | 42.6 | 3.53 | > 50 |  | > 50 | >270 | 20.4 | > 270 | > 270 |  | 
6 | O=C1c2ccccc2C(=O)N1Cc1cn(-c2nc(O)c3ncn([C@@H]4O[C@H](CO)[C@@H](O)[C@H]4O)c3n2)nn1 [Compound 21, 2-[4-(N-Phthalimidomethyl)-1,2,3-triazol-1H-yl]inosine] | > 50 | 14.1 | > 50 | > 200 | > 50 | >200 | 6.32 |  | > 200 |  | 
7 | CCCCc1cn(-c2nc(O)c3ncn([C@@H]4O[C@H](CO)[C@@H](O)[C@H]4O)c3n2)nn1 [Compound 23, 2-(4-n-Butyl-1,2,3-triazol-1H-yl)inosine] | > 50 | 28.1 | > 50 | > 250 | > 50 |  | 37 | 73 | 39 |  | anti-CMV activity (in words) (cytomegalovirus (CMV)): somewhat more pronounced; EC50 (cytomegalovirus (CMV); range over the CMV strains, read-out: EC50 against CMV in HEL cells): 39 to 73 µM
8 | OC[C@H]1O[C@@H](n2cnc3c(O)nc(-n4cc(-c5ccc(F)cc5)nn4)nc32)[C@H](O)[C@@H]1O [Compound 24, 2-[4-(4-Fluorophenyl)-1,2,3-triazol-1H-yl]inosine] | > 50 | 31 | > 50 |  | > 50 | >230 | 34 | > 230 | > 230 |  | 
9 | OC[C@H]1O[C@@H](n2cnc3c(O)nc(-n4cc(-c5ccccc5)nn4)nc32)C[C@@H]1O [Compound 25, 2-[4-(Phenyl)-1,2,3-triazol-1H-yl]-2′-deoxyinosine] | > 50 | 14.8 | > 50 | 188 | > 50 | >250 | 31 |  |  | 158 | anti-CMV activity (in words) (cytomegalovirus (CMV)): marginal activity
10 | COc1ccc(-c2cn(-c3nc(O)c4ncn([C@H]5C[C@H](O)[C@@H](CO)O5)c4n3)nn2)cc1 [Compound 26, 2-[4-(4-Methoxyphenyl)-1,2,3-triazol-1H-yl]-2′-deoxyinosine] | > 50 | 15.7 | > 50 |  | > 50 | >240 | 37.2 |  |  | > 240 | EC50 (CMV AD-169 strain; […]): > 240 µM
11 | OCc1cn(-c2nc(O)c3ncn([C@H]4C[C@H](O)[C@@H](CO)O4)c3n2)nn1 [Compound 27, 2-[4-(Hydroxymethyl)-1,2,3-triazol-1H-yl]-2′-deoxyinosine] | > 50 | 32.9 | > 50 |  | > 50 | >290 | 49.4 |  |  | > 290 | EC50 (CMV AD-169 strain; […]): > 290 µM
12 | O=C1c2ccccc2C(=O)N1Cc1cn(-c2nc(O)c3ncn([C@H]4C[C@H](O)[C@@H](CO)O4)c3n2)nn1 [Compound 28, 2-[4-(N-Phthalimidomethyl)-1,2,3-triazol-1H-yl]-2′-deoxyinosine] | > 50 | 32.2 | > 50 |  | > 50 | >210 | 49.6 |  |  | > 210 | EC50 (CMV AD-169 strain; […]): > 210 µM
13 | CCCCc1cn(-c2nc(O)c3ncn([C@H]4C[C@H](O)[C@@H](CO)O4)c3n2)nn1 [Compound 30, 2-(4-n-Butyl-1,2,3-triazol-1H-yl)-2′-deoxyinosine] | > 50 | 26.9 | > 50 |  | > 50 | >270 | 46.1 |  |  | > 270 | EC50 (CMV AD-169 strain; […]): > 270 µM
14 | OC[C@H]1O[C@@H](n2cnc3c(NCc4ccccc4)nc(-n4cc(-c5ccccc5)nn4)nc32)[C@@H](O)C1O (some centres unmarked) [Compound 35, 6-(N-Benzyl)-2-[4-(phenyl)-1,2,3-triazol-1H-yl]adenosine] |  |  |  |  |  | 200 |  |  |  |  | EC50 (CMV AD-169 strain; Human betaherpesvirus 5, AD169, HEL cell cultures, virus input 100 PFU): > 40 µM; GI50 ([1]; Homo sapiens, HCT-116, 96 h): > 50 µM; GI50 ([2]; 96 h): 24.5 µM; GI50 ([3]; Homo sapiens, HCT-116, 96 h, read-out: GI50 HCT116): 43.6 µM; GI50 ([5]; PTX10, 96 h, read-out: GI50 PTX10): > 50 µM; EC50 (CMV Davis strain; Human betaherpesvirus 5, HEL cell cultures, virus input 100 PFU): > 40 µM; cytostatic activity (in words) ([8]; L1210, CEM, HeLa): poorly cytostatic; IC50 ([8]; range over L1210 (48 h), CEM (72 h), HeLa (96 h)): 90 to 120 µM; GI50 ([7]; 96 h): 5 µM
15 | CC(=O)O[C@H]1C(=O)[C@@]2(C)[C@H]([C@H](OC(=O)c3ccccc3)[C@]3(O)C[C@H](OC(=O)[C@H](O)[C@@H](NC(=O)c4ccccc4)c4ccccc4)C(C)=C1C3(C)C)[C@]1(OC(C)=O)CO[C@@H]1C[C@@H]2O [paclitaxel, reference compound] |  |  |  |  |  |  |  |  |  |  | GI50 [2]: 0.068 µM; GI50 ([3]; Homo sapiens, HCT-116, read-out: GI50 HCT116): 0.00685 µM; GI50 ([5]; PTX10, read-out: GI50 PTX10): 0.079 µM; GI50 [7]: 0.00151 µM

From US9040498B2, “1,2,3-Triazolyl purine derivatives” (RESEARCH FOUNDATION OF THE CITY UNIVERSITY OF NEW YORK, priority 2012, dated 2015)
